Data taken from ChEMBL document CHEMBL5058642, “Data for DCP probe TP-051” (2022).

Assays:
[1] = target: B2 bradykinin receptor (Homo sapiens) (UniProt P30411); test: Bradykinin B2 Eurofins-Panlabs radioligand binding assay; conditions: Compound concentration 10.0 uM
[2] = target: Histamine H1 receptor (Homo sapiens) (UniProt P35367); conditions: Compound concentration 10.0 uM
[3] = target: Beta-1 adrenergic receptor (Homo sapiens) (UniProt P08588); conditions: Compound concentration 10.0 uM
[4] = target: Gamma-aminobutyric acid type B receptor subunit 1 (Homo sapiens) (UniProt Q9UBS5); test: GABAB1A Eurofins-Panlabs radioligand binding assay; conditions: Compound concentration 10.0 uM
[5] = target: Glutamate NMDA receptor (Rattus norvegicus) (UniProt P35439+Q00959+Q00960+Q00961+Q62645+Q8VHN2+Q9R1M7); conditions: Compound concentration 10.0 uM
[6] = target: voltage-gated sodium channel, site 2 (Rattus norvegicus, UniProt F1LQQ7+O08562+O88420+O88457+P04774+P04775+P08104+P15389+P15390+Q62968); test: Inhibition of Sodium Channel, Site 2 at 10 µM in the Eurofins-Panlabs radioligand binding assay (Eurofins_assay_279510); type: protein assay; parameters: ligand concentration 5 nM, non-specific ligand with concentration 100 µM Veratridine, incubation time 60 min, incubation temperature 37 °C; conditions: male, Wistar, rat whole brain (except cerebellum) membranes, probe [3H] Batrachotoxinin, 5 nM, compound concentration 10 uM
Rattus norvegicus [7] = organism: Rattus norvegicus; test: Adrenergic α2, Non-selective Eurofins-Panlabs radioligand binding assay; type: protein assay; conditions: Compound concentration 10.0 uM
[8] = target: Histamine H2 receptor (Homo sapiens) (UniProt P25021); conditions: Compound concentration 10.0 uM
Rattus norvegicus [9] = organism: Rattus norvegicus; test: Adrenergic α1, Non-selective Eurofins-Panlabs radioligand binding assay; type: protein assay; conditions: Compound concentration 10.0 uM
D(4) dopamine receptor = D(4) dopamine receptor (Homo sapiens, UniProt P21917); test: GPCRScan assay: inhibition of D4; parameters: radioligand conc. used [nm] 0.6 – 1.7, parental cells Stable HEK
[10] = target: Voltage-dependent N-type calcium channel subunit alpha-1B (Homo sapiens) (UniProt Q00975); test: Inhibition of Calcium Channel N-Type at 10 µM in the Eurofins-Panlabs radioligand binding assay (Eurofins_assay_216000); conditions: Rattus norvegicus; Compound concentration 10.0 uM
Chain of Voltage-dependent N-type calcium channel subunit alpha-1B (Homo sapiens) (Q00975 whole entry, looked up): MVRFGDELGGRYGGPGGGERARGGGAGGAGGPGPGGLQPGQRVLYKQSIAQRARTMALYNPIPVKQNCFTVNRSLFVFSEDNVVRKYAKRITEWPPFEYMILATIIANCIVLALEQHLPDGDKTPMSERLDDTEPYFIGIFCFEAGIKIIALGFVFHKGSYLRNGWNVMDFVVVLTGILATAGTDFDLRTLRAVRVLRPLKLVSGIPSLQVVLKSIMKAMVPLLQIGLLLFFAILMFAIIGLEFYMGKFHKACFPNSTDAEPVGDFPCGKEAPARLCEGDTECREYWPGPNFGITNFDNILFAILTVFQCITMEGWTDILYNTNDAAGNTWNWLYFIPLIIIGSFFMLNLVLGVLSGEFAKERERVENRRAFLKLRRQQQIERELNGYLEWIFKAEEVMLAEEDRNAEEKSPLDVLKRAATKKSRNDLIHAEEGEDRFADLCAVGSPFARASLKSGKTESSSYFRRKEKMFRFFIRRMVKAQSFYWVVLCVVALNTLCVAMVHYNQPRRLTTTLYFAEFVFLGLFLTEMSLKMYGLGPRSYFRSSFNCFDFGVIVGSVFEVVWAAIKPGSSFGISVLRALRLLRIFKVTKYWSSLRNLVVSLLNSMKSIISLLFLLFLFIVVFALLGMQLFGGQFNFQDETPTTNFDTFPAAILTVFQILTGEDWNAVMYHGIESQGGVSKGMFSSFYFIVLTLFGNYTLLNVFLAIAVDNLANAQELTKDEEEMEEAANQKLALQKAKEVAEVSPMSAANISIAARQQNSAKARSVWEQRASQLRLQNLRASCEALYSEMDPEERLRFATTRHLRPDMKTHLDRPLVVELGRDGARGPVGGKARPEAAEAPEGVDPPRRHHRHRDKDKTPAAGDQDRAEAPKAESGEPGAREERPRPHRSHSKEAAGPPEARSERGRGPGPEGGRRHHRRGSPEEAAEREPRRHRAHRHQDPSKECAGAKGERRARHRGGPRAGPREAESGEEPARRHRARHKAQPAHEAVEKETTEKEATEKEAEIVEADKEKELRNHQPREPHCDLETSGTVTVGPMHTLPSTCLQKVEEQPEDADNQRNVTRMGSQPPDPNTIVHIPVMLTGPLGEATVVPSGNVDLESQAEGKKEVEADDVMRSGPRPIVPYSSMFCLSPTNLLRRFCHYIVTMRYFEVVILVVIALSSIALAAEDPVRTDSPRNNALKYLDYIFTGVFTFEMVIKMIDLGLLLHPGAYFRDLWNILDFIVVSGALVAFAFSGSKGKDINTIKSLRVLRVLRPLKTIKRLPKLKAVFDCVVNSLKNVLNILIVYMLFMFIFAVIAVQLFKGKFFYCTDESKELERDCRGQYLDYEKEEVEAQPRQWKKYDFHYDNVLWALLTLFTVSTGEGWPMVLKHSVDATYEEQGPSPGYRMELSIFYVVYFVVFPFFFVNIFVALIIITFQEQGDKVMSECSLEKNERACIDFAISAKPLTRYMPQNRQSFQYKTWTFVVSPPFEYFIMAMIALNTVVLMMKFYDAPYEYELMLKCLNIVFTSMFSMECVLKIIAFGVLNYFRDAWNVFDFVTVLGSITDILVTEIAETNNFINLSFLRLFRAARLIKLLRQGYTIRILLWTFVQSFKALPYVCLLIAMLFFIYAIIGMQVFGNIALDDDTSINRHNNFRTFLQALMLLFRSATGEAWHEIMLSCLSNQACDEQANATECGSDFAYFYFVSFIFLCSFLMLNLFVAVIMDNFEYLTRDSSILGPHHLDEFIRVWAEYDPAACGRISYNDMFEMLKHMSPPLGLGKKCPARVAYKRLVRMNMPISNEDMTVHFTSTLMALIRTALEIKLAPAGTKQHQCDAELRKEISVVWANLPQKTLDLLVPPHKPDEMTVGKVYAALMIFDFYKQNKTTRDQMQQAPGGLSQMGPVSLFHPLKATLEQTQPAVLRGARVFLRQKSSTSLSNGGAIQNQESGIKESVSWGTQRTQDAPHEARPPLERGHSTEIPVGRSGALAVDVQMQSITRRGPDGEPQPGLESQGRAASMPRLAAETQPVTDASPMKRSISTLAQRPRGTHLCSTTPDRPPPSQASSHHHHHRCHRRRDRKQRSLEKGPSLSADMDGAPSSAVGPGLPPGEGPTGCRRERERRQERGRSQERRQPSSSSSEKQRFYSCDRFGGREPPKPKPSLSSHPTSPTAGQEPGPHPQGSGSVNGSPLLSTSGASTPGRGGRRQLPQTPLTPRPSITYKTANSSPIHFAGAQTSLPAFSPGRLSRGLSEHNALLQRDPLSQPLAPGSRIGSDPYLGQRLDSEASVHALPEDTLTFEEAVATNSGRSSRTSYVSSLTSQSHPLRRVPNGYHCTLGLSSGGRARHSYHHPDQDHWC

Renin (Homo sapiens) = Renin (Homo sapiens) (UniProt P00797); test: Peptidase, Renin Eurofins-Panlabs enzyme assay; conditions: Compound concentration 10.0 uM
[11] = target: Beta-3 adrenergic receptor (Homo sapiens) (UniProt P13945); conditions: Compound concentration 10.0 uM
[12] = target: D(1A) dopamine receptor (Homo sapiens) (UniProt P21728); conditions: Compound concentration 10.0 uM
Chain of D(1A) dopamine receptor (Homo sapiens) (P21728 whole entry): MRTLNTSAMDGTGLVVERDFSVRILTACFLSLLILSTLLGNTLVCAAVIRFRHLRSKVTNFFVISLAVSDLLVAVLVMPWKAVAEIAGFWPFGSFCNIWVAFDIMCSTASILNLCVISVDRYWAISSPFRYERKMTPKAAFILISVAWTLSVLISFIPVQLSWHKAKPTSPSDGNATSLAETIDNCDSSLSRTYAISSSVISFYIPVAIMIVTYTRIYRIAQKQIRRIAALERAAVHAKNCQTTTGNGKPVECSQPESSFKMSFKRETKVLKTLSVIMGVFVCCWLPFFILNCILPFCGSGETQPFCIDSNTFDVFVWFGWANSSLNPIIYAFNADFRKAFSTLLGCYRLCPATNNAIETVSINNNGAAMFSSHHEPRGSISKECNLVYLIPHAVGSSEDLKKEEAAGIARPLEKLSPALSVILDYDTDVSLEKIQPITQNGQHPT

[13] = target: Vasopressin V1b receptor (Homo sapiens) (UniProt P47901); test: Inhibition of Vasopressin V1B at 10 µM in the Eurofins-Panlabs radioligand binding assay (Eurofins_assay_287560); parameters: ligand concentration 1 nM; conditions: Compound concentration 10.0 uM
Chain of Vasopressin V1b receptor (Homo sapiens) (P47901 whole entry): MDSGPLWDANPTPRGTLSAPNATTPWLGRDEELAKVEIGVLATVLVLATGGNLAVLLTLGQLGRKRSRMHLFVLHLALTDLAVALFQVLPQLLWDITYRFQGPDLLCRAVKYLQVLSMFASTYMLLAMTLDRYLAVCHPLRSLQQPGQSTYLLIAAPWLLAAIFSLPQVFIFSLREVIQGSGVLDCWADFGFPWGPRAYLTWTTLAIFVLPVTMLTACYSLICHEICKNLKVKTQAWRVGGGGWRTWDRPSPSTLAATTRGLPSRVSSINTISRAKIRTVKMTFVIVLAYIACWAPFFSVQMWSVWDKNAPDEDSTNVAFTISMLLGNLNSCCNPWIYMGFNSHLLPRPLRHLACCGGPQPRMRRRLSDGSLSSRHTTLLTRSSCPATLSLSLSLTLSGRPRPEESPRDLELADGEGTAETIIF

D(3) dopamine receptor = D(3) dopamine receptor (Homo sapiens, UniProt P35462); conditions: Compound concentration 10.0 uM
Chain of D(3) dopamine receptor (P35462 whole entry): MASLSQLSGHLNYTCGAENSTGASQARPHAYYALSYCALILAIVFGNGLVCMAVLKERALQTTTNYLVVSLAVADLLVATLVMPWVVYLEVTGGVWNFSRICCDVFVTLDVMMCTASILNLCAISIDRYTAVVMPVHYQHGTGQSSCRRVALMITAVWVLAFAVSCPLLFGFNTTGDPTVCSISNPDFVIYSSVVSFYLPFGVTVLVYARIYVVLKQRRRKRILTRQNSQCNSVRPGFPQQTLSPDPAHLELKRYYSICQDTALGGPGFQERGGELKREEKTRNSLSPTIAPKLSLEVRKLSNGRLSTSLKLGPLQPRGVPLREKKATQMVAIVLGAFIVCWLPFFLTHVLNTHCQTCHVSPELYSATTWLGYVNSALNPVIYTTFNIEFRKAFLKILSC

[14] = target: Progesterone receptor (Homo sapiens) (UniProt P06401); test: Inhibition of Progesterone PR-B at 10 µM in the Eurofins-Panlabs radioligand binding assay (Eurofins_assay_268020); parameters: ligand concentration 1.4 nM; conditions: Compound concentration 10.0 uM
[15] = target: Beta-2 adrenergic receptor (Homo sapiens, UniProt P07550); test: GPCRScan assay: inhibition of Beta2; parameters: radioligand conc. used [nm] 0.5 - 1.0, parental cells HEK Flp-In
[16] = target: Substance-P receptor (Homo sapiens) (UniProt P25103); test: Tachykinin NK1 Eurofins-Panlabs radioligand binding assay; conditions: Compound concentration 10.0 uM
Chain of Substance-P receptor (Homo sapiens) (P25103 whole entry): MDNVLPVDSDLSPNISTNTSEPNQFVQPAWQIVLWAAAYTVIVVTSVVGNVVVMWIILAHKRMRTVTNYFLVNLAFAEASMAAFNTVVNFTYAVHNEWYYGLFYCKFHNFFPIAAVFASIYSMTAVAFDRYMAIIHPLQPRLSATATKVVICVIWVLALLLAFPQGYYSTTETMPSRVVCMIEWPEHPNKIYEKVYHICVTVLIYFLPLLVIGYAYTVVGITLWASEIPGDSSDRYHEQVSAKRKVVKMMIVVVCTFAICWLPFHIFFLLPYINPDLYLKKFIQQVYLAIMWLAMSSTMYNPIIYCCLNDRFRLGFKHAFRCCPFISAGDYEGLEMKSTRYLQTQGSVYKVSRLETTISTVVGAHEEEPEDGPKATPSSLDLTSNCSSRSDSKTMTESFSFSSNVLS

[17] = target: Adenosine receptor A1 (Homo sapiens) (UniProt P30542); conditions: Compound concentration 10.0 uM
[18] = target: Alpha-1D adrenergic receptor (Homo sapiens) (UniProt P25100); conditions: Compound concentration 10.0 uM
[19] = target: 5-hydroxytryptamine receptor 1E (Homo sapiens) (UniProt P28566); conditions: Compound concentration 10.0 uM
Chain of 5-hydroxytryptamine receptor 1E (Homo sapiens) (P28566 whole entry): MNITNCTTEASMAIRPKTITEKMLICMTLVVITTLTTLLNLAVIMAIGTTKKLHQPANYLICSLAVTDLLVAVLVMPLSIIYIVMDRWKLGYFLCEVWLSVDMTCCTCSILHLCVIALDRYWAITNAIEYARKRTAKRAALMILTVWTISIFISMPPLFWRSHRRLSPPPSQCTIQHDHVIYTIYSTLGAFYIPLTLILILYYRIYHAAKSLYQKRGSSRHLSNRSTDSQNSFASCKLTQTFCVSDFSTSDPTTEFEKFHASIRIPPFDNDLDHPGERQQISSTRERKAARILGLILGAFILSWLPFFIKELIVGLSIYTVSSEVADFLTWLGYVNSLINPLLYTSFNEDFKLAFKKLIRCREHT

[20] = target: Type-2 angiotensin II receptor (Homo sapiens) (UniProt P50052); test: Angiotensin AT2 Eurofins-Panlabs radioligand binding assay; type: protein assay; conditions: Compound concentration 10.0 uM
[21] = target: GABA-A receptor; anion channel (Rattus norvegicus) (UniProt O09028+P15431+P18506+P18508+P19969+P20236+P23574+P23576+P28471+P28473+P30191+P62813+P63079+P63138+Q91ZM7+Q9ES14); test: Inhibition of GABAA, Muscimol, Central at 10 µM in the Eurofins-Panlabs radioligand binding assay (Eurofins_assay_226500); type: protein-complex assay; conditions: Compound concentration 10.0 uM
[22] = target: Type-1 angiotensin II receptor (Homo sapiens) (UniProt P30556); test: Angiotensin AT1 Eurofins-Panlabs radioligand binding assay; conditions: Compound concentration 10.0 uM
[23] = target: 5-hydroxytryptamine receptor 6 (Homo sapiens) (UniProt P50406); conditions: Compound concentration 10.0 uM
[24] = target: T1, 5-hydroxytryptamine receptor 3A (Homo sapiens) (UniProt P46098); conditions: Compound concentration 10.0 uM
T1 sequence (whole entry): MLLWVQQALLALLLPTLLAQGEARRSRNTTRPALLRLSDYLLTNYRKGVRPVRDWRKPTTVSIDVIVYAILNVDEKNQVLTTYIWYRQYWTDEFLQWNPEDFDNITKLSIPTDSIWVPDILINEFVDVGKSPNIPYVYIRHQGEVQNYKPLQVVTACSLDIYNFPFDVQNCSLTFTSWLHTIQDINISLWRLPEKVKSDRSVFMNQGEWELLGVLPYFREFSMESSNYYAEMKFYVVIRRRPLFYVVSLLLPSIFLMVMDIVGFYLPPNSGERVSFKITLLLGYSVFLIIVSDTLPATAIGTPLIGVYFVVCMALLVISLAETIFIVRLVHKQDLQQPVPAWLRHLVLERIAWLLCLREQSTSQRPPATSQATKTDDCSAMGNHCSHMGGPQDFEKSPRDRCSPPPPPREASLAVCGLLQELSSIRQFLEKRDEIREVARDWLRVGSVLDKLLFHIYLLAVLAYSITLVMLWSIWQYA

Rattus norvegicus [25] = organism: Rattus norvegicus; test: Inhibition of Glycine, Strychnine-Sensitive at 10 µM in the Eurofins-Panlabs radioligand binding assay (Eurofins_assay_239000); conditions: Compound concentration 10.0 uM
Rattus norvegicus [26] = organism: Rattus norvegicus; test: Opiate, Non-Selective Eurofins-Panlabs radioligand binding assay; parameters: ligand concentration 1 nM; conditions: Compound concentration 10.0 uM
[27] = target: Ca2+/calmodulin-dependent protein kinase II (CaM kinase II) (Rattus norvegicus) (UniProt P11275+P08413+P15791+P11730); test: Protein Serine/Threonine Kinase, Ca2+/Calmodulin-Dep.II Eurofins-Panlabs enzyme assay; conditions: Compound concentration 10.0 uM
[28] = target: Prothrombin (Homo sapiens) (UniProt P00734); test: Peptidase, Thrombin Eurofins-Panlabs enzyme assay; parameters: substrate with concentration; conditions: Compound concentration 10.0 uM
[29] = target: Histamine H4 receptor (Homo sapiens) (UniProt Q9H3N8); conditions: Compound concentration 10.0 uM
[30] = target: Sodium-dependent serotonin transporter (Homo sapiens) (UniProt P31645); conditions: Compound concentration 10.0 uM
Homo sapiens = organism: Homo sapiens; test: Cholecystokinin CCK2 (CCKB) Eurofins-Panlabs radioligand binding assay; parameters: ligand concentration 0.072 nM, non-specific ligand with concentration 1 µM Sincalide, incubation time 3 h, incubation temperature 25 °C; conditions: Compound concentration 10.0 uM
[31] = GPCRScan assay: inhibition of GABA/PBR; parameters: species or system Rattus norvegicus; radioligand conc. used [nm] 0.3 – 2.0, parental cells brain tissue
[32] = target: Cannabinoid receptor 1 (Homo sapiens) (UniProt P21554); test: Cannabinoid CB1 Eurofins-Panlabs radioligand binding assay; conditions: Compound concentration 10.0 uM

Chain of B2 bradykinin receptor (Homo sapiens) (P30411 whole entry): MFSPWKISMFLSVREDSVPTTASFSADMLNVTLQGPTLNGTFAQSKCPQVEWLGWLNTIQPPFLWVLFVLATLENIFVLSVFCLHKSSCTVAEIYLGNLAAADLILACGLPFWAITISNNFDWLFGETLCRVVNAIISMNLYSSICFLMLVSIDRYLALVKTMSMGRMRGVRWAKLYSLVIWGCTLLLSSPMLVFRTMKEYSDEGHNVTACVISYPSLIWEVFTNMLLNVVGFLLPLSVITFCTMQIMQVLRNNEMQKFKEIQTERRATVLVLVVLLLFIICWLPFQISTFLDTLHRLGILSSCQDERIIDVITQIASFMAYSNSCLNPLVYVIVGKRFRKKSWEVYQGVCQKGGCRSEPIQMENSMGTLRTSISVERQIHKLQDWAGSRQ

Row | Compound | inhibition [1] [%] | inhibition [2] [%] | inhibition [3] [%] | inhibition [4] [%] | inhibition [5] [%] | inhibition at 60 min, 10 µM [6] | inhibition (Rattus norvegicus [7]) [%] | inhibition [8] [%] | inhibition (Rattus norvegicus [9]) [%] | inhibition [10] [%] | inhibition [11] [%] | inhibition [12] [%] | inhibition [13] [%] | inhibition (D(3) dopamine receptor) [%] | inhibition [14] [%] | inhibition [16] [%] | inhibition [17] [%] | inhibition [19] [%] | inhibition [20] [%] | inhibition [21] [%] | also measured
1 | Cc1cc(OC2CCS(=O)(=O)CC2)cc(C)c1-c1cccc(COc2ccc(CCC(=O)O)c(F)c2)c1 | 7 | 12 | 14.4 | 7 | 8 | 6% (not active) | 8 | 26 | -2 | -4 | 15 | 24 | -4 | 59.6 | 10 | 17 | -1 | 3.83 | -4 | 3 | Ki (D(4) dopamine receptor): 1230 nM; inhibition (Renin (Homo sapiens)): -1%; Ki [15]: > 10000 nM; pKi [15]: < 5; inhibition [18]: 50.8%; inhibition [22]: 14%; inhibition [23]: -7.86%; inhibition [24]: 6.06%; inhibition (Rattus norvegicus [25]): 7%; inhibition (Rattus norvegicus [26]): -8%; inhibition [27]: 44%; inhibition [28]: -1%; inhibition [29]: 10.8%
2 | Cc1cc(OC2CCS(=O)(=O)CC2)cc(C)c1-c1cccc(COc2ccc(C(=O)O)c(F)c2)c1 | -4 | -2.18 | -0.49 | 20 | 7 | -5% (not active) | 6 | 2 | -1 | -9 | -3 | -3 | -4 | 7.34 | 6 | 3 | -4 | -1.42 | 1 | 8 | inhibition [30]: 2%; inhibition (Homo sapiens): 5%; Ki [31]: 2750 nM; pKi [31]: 5.56; inhibition [22]: 1%; inhibition [32]: -6%; inhibition [24]: -5.96%; inhibition (Rattus norvegicus [25]): 5%; inhibition (Rattus norvegicus [26]): 3%; inhibition [29]: 17.4%
